Laboratory results from ChEMBL document CHEMBL1201862, “PubChem BioAssay data set” (2004).
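Compound exposure: 48 hours, 5 concentrations, 96-well plates. GI50 marks 50% less growth.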 The source made the active and inactive calls. Rule as the data show it: active = GI50 up to about 1.1 µM and inactive = higher.

What was measured:
Experiment in all cases: NCI-60 cell line screen, 48 h
A549 = system: A549
NCI-H460 = system: NCI-H460
KM12 = system: KM12
HOP-62 = system: HOP-62
PC-3 = system: PC-3
SK-OV-3 = system: SK-OV-3
SF-295 = system: SF-295
SK-MEL-2 = system: SK-MEL-2
HCT-116 = system: HCT-116
NCI-H23 = system: NCI-H23
OVCAR-4 = system: OVCAR-4
HCC 2998 = system: HCC 2998
SF-539 = system: SF-539
OVCAR-3 = system: OVCAR-3
LOX IMVI = system: LOX IMVI
SR = system: SR
DU-145 = system: DU-145
SNB-19 = system: SNB-19
NCI-H522 = system: NCI-H522
RPMI-8226 = system: RPMI-8226

Compound	GI50 (A549)	GI50 (NCI-H460)	GI50 (KM12)	GI50 (HOP-62)	GI50 (PC-3)	GI50 (SK-OV-3)	GI50 (SF-295)	GI50 (SK-MEL-2)	GI50 (HCT-116)	GI50 (NCI-H23)	GI50 (OVCAR-4)	GI50 (HCC 2998)	GI50 (SF-539)	GI50 (OVCAR-3)	GI50 (LOX IMVI)	GI50 (SR)	GI50 (DU-145)	GI50 (SNB-19)	GI50 (NCI-H522)	GI50 (RPMI-8226)
CCN1C(Cl)=NS(=O)(=O)c2ccccc21	> 100 µM (inactive)	22.8 µM (inactive)	51.8 µM (inactive)	25.2 µM (inactive)	50 µM (inactive)	71.6 µM (inactive)	> 100 µM (inactive)	39.7 µM (inactive)	23.8 µM (inactive)	23.6 µM (inactive)	19.4 µM (inactive)	20.3 µM (inactive)	15.9 µM (inactive)	19.3 µM (inactive)	15.7 µM (inactive)	34.1 µM (inactive)	36.7 µM (inactive)	35.5 µM (inactive)	4.66 µM (inactive)	–
CSCCCNC(=O)c1csc(-c2csc(CCNC(=O)CNC(=O)OC(C)(C)C)n2)n1	> 100 µM (inactive)	> 100 µM (inactive)	> 100 µM (inactive)	> 100 µM (inactive)	> 100 µM (inactive)	> 100 µM (inactive)	> 100 µM (inactive)	> 100 µM (inactive)	> 100 µM (inactive)	77.6 µM (inactive)	> 100 µM (inactive)	> 100 µM (inactive)	> 100 µM (inactive)	> 100 µM (inactive)	> 100 µM (inactive)	> 100 µM (inactive)	> 100 µM (inactive)	> 100 µM (inactive)	> 100 µM (inactive)	–
CC(c1ccccc1)n1cncc1C(=O)NN1CCN(C)CC1 (stereo not given)	> 10 µM (inactive)	> 10 µM (inactive)	> 10 µM (inactive)	> 10 µM (inactive)	> 10 µM (inactive)	> 10 µM (inactive)	> 10 µM (inactive)	> 10 µM (inactive)	> 10 µM (inactive)	> 10 µM (inactive)	> 10 µM (inactive)	–	> 10 µM (inactive)	> 10 µM (inactive)	> 10 µM (inactive)	> 10 µM (inactive)	> 10 µM (inactive)	> 10 µM (inactive)	> 10 µM (inactive)	> 10 µM (inactive)
CC1=NN2C=Nc3c(c(-c4ccc(Cl)cc4)cn3-c3ccc(C)cc3)C2N1 (stereo not given)	> 100 µM (inactive)	56.6 µM (inactive)	–	36.5 µM (inactive)	32.9 µM (inactive)	61.9 µM (inactive)	39.3 µM (inactive)	> 100 µM (inactive)	46.2 µM (inactive)	> 100 µM (inactive)	6.24 µM (inactive)	> 100 µM (inactive)	87.1 µM (inactive)	> 100 µM (inactive)	> 100 µM (inactive)	0.288 µM (active)	> 100 µM (inactive)	54.5 µM (inactive)	> 100 µM (inactive)	–
C=C1C2CCC3C4(C)CCCC(C)(C(=O)O)C4CCC3(C2)C1OC(=O)/C(C)=C/C (stereo not given)	35.9 µM (inactive)	34.6 µM (inactive)	17.3 µM (inactive)	45.6 µM (inactive)	31.3 µM (inactive)	27.5 µM (inactive)	20.3 µM (inactive)	36.1 µM (inactive)	38.5 µM (inactive)	36.8 µM (inactive)	41.6 µM (inactive)	26.7 µM (inactive)	27.5 µM (inactive)	19.8 µM (inactive)	34.5 µM (inactive)	2.98 µM (inactive)	42.3 µM (inactive)	–	31.8 µM (inactive)	–
CC1(O)CC23CC1CCC2(C)C12CCCC(C)(C(=O)O1)C2CC3O (stereo not given)	> 100 µM (inactive)	> 100 µM (inactive)	> 100 µM (inactive)	–	> 100 µM (inactive)	> 100 µM (inactive)	> 100 µM (inactive)	> 100 µM (inactive)	> 100 µM (inactive)	> 100 µM (inactive)	> 100 µM (inactive)	> 100 µM (inactive)	> 100 µM (inactive)	–	> 100 µM (inactive)	> 100 µM (inactive)	> 100 µM (inactive)	> 100 µM (inactive)	> 100 µM (inactive)	–
